Results reported in patent US11197933B2, “Polysubunit opioid prodrugs resistant to overdose and abuse” (Elysium Therapeutics, Inc., priority 2017, dated 2021).

What was measured:
trypsin = biological target: T1, trypsin (Bos taurus, UniProt P00760); assay: Inhibition of trypsin-catalyzed hydrolysis of BANA (percent BANA remaining vs. time); format: biochemical; settings: pH 7.4, 37° C.; for Ability to inhibit trypsin (result in words): increasing concentrations, BANA substrate
T1 construct: gene PRSS1
T1 sequence (P00760 24-246): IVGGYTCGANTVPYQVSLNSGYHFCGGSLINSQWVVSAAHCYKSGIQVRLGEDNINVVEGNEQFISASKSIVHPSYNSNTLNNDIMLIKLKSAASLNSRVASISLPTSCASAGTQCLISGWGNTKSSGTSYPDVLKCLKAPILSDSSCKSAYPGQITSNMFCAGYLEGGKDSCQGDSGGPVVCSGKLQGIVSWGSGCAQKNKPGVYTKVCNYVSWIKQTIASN
Protocol: This example describes in vitro experiments with a compound of the disclosure to provide a mechanism of overdose protection.
The effect of increasing concentrations of compounds II-D-11, II-D-23, II-D-71c and II-D-71b on the rate and extent of the trypsin-catalyzed hydrolysis of a commercially available trypsin substrate Nα-Benzoyl-L-arginine 4-nitroanilide hydrochloride (BANA) was evaluated in the presence of trypsin (2,000 BAEE activity) in a pH 7.4 phosphate buffer at 37° C. in vitro. Both buffer solution alone (i.e. no trypsin) and trypsin containing buffer solution (i.e. no test compounds) controls were run contemporaneously.

[1] = Hydrocodone and naltrexone release from II-D-71c-NTX in 0.5M aqueous NaOH at 60° C. (tampering); format: physicochemical; settings: for Percent HC Released / Percent NTX Released: 60° C. incubation in 0.5M aqueous NaOH
Protocol: H-D-71c-NTX was incubated in a strongly basic solution of 0.5M aqueous sodium hydroxide at 60° C. for 300 minutes. The solution was analyzed for the presence of both hydrocodone and naltrexone at specified time points using LC/MS analysis. […] The data from this study is presented graphically in FIG. 2.

COc1ccc2c3c1OC1C(OC(=O)N4CCC(C(=O)NCCCCC(NC(C)=O)C(=O)NCCOc5ccc(C(=O)Oc6ccc7cc(C(=N)N)ccc7c6)cc5)CC4CNC(=O)C(CCCNC(=N)N)NC(=O)CNC(C)=O)=CCC4C(C2)N(C)CCC314 [II-D-11]
Percent BANA remaining (trypsin; 1 uM compound, 2 minutes): 100%
Percent BANA remaining (trypsin; 1 uM compound, 13 minutes): 39%
Percent BANA remaining (trypsin; 1 uM compound, 24 minutes): 0%
Percent BANA remaining (trypsin; 1 uM compound, 80 minutes): 0%
Percent BANA remaining (trypsin; 1 uM compound, 102 minutes): 0%
Percent BANA remaining (trypsin; 1 uM compound, 119 minutes): 0%
Percent BANA remaining (trypsin; 1 uM compound, 234 minutes): 0%
Percent BANA remaining (trypsin; 10 uM compound, 2 minutes): 100%
Percent BANA remaining (trypsin; 10 uM compound, 13 minutes): 98%
Percent BANA remaining (trypsin; 10 uM compound, 24 minutes): 96%
Percent BANA remaining (trypsin; 10 uM compound, 80 minutes): 94%
Percent BANA remaining (trypsin; 10 uM compound, 102 minutes): 93%
Percent BANA remaining (trypsin; 10 uM compound, 119 minutes): 94%
Percent BANA remaining (trypsin; 10 uM compound, 234 minutes): 87%
Percent BANA remaining (trypsin; 100 uM compound, 2 minutes): 100%
Percent BANA remaining (trypsin; 100 uM compound, 13 minutes): 98%
Percent BANA remaining (trypsin; 100 uM compound, 24 minutes): 100%
Percent BANA remaining (trypsin; 100 uM compound, 80 minutes): 99%
Percent BANA remaining (trypsin; 100 uM compound, 102 minutes): 99%
Percent BANA remaining (trypsin; 100 uM compound, 119 minutes): 99%
Percent BANA remaining (trypsin; 100 uM compound, 234 minutes): 99%
Percent BANA remaining (trypsin; 1 mM compound, 2 minutes): 100%
Percent BANA remaining (trypsin; 1 mM compound, 13 minutes): 100%
Percent BANA remaining (trypsin; 1 mM compound, 24 minutes): 99%
Percent BANA remaining (trypsin; 1 mM compound, 80 minutes): 100%
Percent BANA remaining (trypsin; 1 mM compound, 102 minutes): 100%
Percent BANA remaining (trypsin; 1 mM compound, 119 minutes): 100%
Percent BANA remaining (trypsin; 1 mM compound, 234 minutes): 100%
Ability to inhibit trypsin (result in words) (trypsin): progressively inhibit trypsin in a concentration dependent manner

COc1ccc2c3c1OC1C(OC(=O)N4CCC(C(=O)NCCCCC(NC(=O)OCc5ccccc5)C(=O)NCCOc5ccc(C(=O)Oc6ccc7cc(C(=N)N)ccc7c6)cc5)CC4CNC(=O)C(CCCNC(=N)N)NC(=O)CNC(C)=O)=CCC4C(C2)N(C)CCC314 [II-D-23]
Percent BANA remaining (trypsin; 1 uM compound, 2 minutes): 100%
Percent BANA remaining (trypsin; 1 uM compound, 14 minutes): 20%
Percent BANA remaining (trypsin; 1 uM compound, 24 minutes): 11%
Percent BANA remaining (trypsin; 1 uM compound, 32 minutes): 0%
Percent BANA remaining (trypsin; 1 uM compound, 70 minutes): 0%
Percent BANA remaining (trypsin; 1 uM compound, 100 minutes): 0%
Percent BANA remaining (trypsin; 1 uM compound, 145 minutes): 0%
Percent BANA remaining (trypsin; 1 uM compound, 156 minutes): 0%
Percent BANA remaining (trypsin; 1 uM compound, 247 minutes): 0%
Percent BANA remaining (trypsin; 10 uM compound, 2 minutes): 100%
Percent BANA remaining (trypsin; 10 uM compound, 14 minutes): 98%
Percent BANA remaining (trypsin; 10 uM compound, 24 minutes): 96%
Percent BANA remaining (trypsin; 10 uM compound, 32 minutes): 98%
Percent BANA remaining (trypsin; 10 uM compound, 70 minutes): 97%
Percent BANA remaining (trypsin; 10 uM compound, 100 minutes): 95%
Percent BANA remaining (trypsin; 10 uM compound, 145 minutes): 96%
Percent BANA remaining (trypsin; 10 uM compound, 156 minutes): 96%
Percent BANA remaining (trypsin; 10 uM compound, 247 minutes): 93%
Percent BANA remaining (trypsin; 100 uM compound, 2 minutes): 100%
Percent BANA remaining (trypsin; 100 uM compound, 14 minutes): 99%
Percent BANA remaining (trypsin; 100 uM compound, 24 minutes): 100%
Percent BANA remaining (trypsin; 100 uM compound, 32 minutes): 100%
Percent BANA remaining (trypsin; 100 uM compound, 70 minutes): 100%
Percent BANA remaining (trypsin; 100 uM compound, 100 minutes): 100%
Percent BANA remaining (trypsin; 100 uM compound, 145 minutes): 100%
Percent BANA remaining (trypsin; 100 uM compound, 156 minutes): 100%
Percent BANA remaining (trypsin; 100 uM compound, 247 minutes): 100%
Percent BANA remaining (trypsin; 1 mM compound, 2 minutes): 100%
Percent BANA remaining (trypsin; 1 mM compound, 14 minutes): 99%
Percent BANA remaining (trypsin; 1 mM compound, 24 minutes): 98%
Percent BANA remaining (trypsin; 1 mM compound, 32 minutes): 99%
Percent BANA remaining (trypsin; 1 mM compound, 70 minutes): 99%
Percent BANA remaining (trypsin; 1 mM compound, 100 minutes): 98%
Percent BANA remaining (trypsin; 1 mM compound, 145 minutes): 98%
Percent BANA remaining (trypsin; 1 mM compound, 156 minutes): 97%
Percent BANA remaining (trypsin; 1 mM compound, 247 minutes): 96%
Ability to inhibit trypsin (result in words) (trypsin): progressively inhibit trypsin in a concentration dependent manner

COc1ccc2c3c1O[C@H]1C(OC(=O)N4CCC(C(=O)NCCCC[C@H](NC(=O)CCCN(C)C(=O)Oc5ccc6c7c5O[C@H]5C(=O)CC[C@@]8(O)[C@@H](C6)N(CC6CC6)CC[C@]758)C(=O)NCCNC(=O)Cc5ccc(OC(=O)c6ccc(NC(=N)N)cc6)cc5)CC4CNC(=O)[C@@H](CCCNC(=N)N)NC(=O)CNC(C)=O)=CC[C@H]4[C@@H](C2)N(C)CC[C@]314.O=C(O)C(F)(F)F.O=C(O)C(F)(F)F.O=C(O)C(F)(F)F.O=C(O)C(F)(F)F (stereo partly drawn) [II-D-71c-NTX]
Release of hydrocodone and naltrexone on tampering (result in words) ([1]; 0.5M aqueous sodium hydroxide, 60° C., 300 minutes, LC/MS): release of the opioid agonist (e.g. hydrocodone) occurs concomitantly with the release of the opioid antagonist
Percent HC Released ([1]; time 0 (minutes)): 0%
Percent NTX Released ([1]; time 0 (minutes)): 0%
Percent HC Released ([1]; time 5 (minutes)): 2.52%
Percent NTX Released ([1]; time 5 (minutes)): 1.44%
Percent HC Released ([1]; time 10 (minutes)): 4.45%
Percent NTX Released ([1]; time 10 (minutes)): 2.0%
Percent HC Released ([1]; time 15 (minutes)): 6.27%
Percent NTX Released ([1]; time 15 (minutes)): 2.95%
Percent HC Released ([1]; time 20 (minutes)): 9.27%
Percent NTX Released ([1]; time 20 (minutes)): 3.69%
Percent HC Released ([1]; time 30 (minutes)): 13.99%
Percent NTX Released ([1]; time 30 (minutes)): 6.47%
Percent HC Released ([1]; time 60 (minutes)): 25.32%
Percent NTX Released ([1]; time 60 (minutes)): 14.41%
Percent HC Released ([1]; time 120 (minutes)): 37.9%
Percent NTX Released ([1]; time 120 (minutes)): 37.81%
Percent HC Released ([1]; time 300 (minutes)): 56.1%
Percent NTX Released ([1]; time 300 (minutes)): 60.25%
